In assay [1] the target is Tyrosine-protein kinase Yes (Homo sapiens) (UniProt P07947). To be noted: at 10 µM.
The target in assay [2] is Macrophage colony-stimulating factor 1 receptor (Homo sapiens) (UniProt P07333). Put plainly: Selectivity interaction (KinomeScan (DiscoverX)) EUB0001079a CSF1R. The settings on record: at 1 µM.
Assay [3] addresses ALK tyrosine kinase receptor (Homo sapiens, UniProt Q9UM73). Put plainly: Selectivity interaction (KinomeScan (DiscoverX)) EUB0000092b ALK. The settings on record: at 10 µM.
For assay [4], the target named is T1, Cyclin-dependent kinase 11A (Homo sapiens) (UniProt Q9UQ88).
T1 sequence (whole entry): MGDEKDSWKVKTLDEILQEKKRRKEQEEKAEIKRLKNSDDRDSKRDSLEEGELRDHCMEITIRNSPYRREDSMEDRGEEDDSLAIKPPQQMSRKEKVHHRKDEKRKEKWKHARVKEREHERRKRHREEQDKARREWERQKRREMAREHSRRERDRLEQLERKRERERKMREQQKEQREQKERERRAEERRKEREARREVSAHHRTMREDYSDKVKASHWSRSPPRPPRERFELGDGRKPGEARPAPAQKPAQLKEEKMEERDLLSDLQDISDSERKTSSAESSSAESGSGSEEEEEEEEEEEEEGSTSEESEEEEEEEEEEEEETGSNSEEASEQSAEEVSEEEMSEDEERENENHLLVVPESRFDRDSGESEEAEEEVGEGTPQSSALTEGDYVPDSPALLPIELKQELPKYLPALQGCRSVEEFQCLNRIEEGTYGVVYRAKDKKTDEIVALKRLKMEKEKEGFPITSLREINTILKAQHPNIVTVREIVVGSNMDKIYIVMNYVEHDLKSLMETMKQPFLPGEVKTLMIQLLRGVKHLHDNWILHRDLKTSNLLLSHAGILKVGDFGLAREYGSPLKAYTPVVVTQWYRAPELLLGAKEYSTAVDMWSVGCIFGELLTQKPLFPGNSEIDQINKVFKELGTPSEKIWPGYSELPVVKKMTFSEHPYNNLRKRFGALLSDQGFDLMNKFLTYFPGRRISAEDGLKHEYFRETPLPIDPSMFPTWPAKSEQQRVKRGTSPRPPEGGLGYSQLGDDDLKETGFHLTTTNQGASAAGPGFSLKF
Put plainly: Selectivity interaction (KinomeScan (DiscoverX)) EUB0000092b CDK11A. The settings on record: at 10 µM.

In assay [5] the test system is Tyrosine-protein kinase ABL1 (Homo sapiens), P00519 [F317I]. Put plainly: (§1) Selectivity interaction (KinomeScan (DiscoverX)) EUB0001049a ABL1. The settings on record: at 1 µM.
The test system of assay [6] is Tyrosine-protein kinase ABL1 (Homo sapiens), P00519 [F317L]. Described as §1. The settings on record: at 1 µM.
For assay [7], the target named is Activin receptor type-2A (Homo sapiens) (UniProt P27037). Put plainly: Selectivity interaction (KinomeScan (DiscoverX)) EUB0001049a ACVR2A. The settings on record: at 1 µM.
Assay [8] deals with Tyrosine-protein kinase JAK1 (Homo sapiens, UniProt P23458). Put plainly: Selectivity interaction (Antiproliferative activity against Tel-kinase transformed Ba/F3 cell line) EUB0000045b JAK1. In kind it is cell-based. To be noted: BaF3.
The target in assay [9] is Fibroblast growth factor receptor 2 (Homo sapiens) (UniProt P21802). Put plainly: Selectivity interaction (KinomeScan (DiscoverX)) EUB0000607a FGFR2. To be noted: at 10 µM.
The target in assay [10] is Mitogen-activated protein kinase kinase kinase 9 (Homo sapiens) (UniProt P80192). Put plainly: Selectivity interaction (KinomeScan (DiscoverX)) EUB0000607a MAP3K9. The settings on record: at 10 µM.
Assay [11] concerns the target T2, Protein kinase C iota type (Homo sapiens) (UniProt P41743).
T2 sequence (whole entry): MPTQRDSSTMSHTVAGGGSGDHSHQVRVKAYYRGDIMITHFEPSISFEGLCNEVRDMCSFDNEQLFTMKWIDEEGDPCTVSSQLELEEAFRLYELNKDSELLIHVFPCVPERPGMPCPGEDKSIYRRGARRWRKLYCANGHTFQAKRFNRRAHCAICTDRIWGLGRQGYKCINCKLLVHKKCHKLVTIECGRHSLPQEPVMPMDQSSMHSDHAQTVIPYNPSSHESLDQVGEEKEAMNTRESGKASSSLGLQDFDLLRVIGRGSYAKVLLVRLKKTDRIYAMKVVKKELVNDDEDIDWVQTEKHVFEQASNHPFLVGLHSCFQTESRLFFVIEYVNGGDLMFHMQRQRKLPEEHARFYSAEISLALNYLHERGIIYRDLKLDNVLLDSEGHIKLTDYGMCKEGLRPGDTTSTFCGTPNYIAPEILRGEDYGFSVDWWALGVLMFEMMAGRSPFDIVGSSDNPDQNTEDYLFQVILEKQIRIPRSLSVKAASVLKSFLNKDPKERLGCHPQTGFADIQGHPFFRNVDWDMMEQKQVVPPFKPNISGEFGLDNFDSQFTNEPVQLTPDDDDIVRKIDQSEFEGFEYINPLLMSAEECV
Put plainly: Selectivity interaction (SelectScreen profiling (Invitrogen)) EUB0000607a PRKCI. The settings on record: at 2 µM.

In assay [12] the target is Calcium/calmodulin-dependent protein kinase type 1D (Homo sapiens) (UniProt Q8IU85). Put plainly: Selectivity interaction (ActivX KiNativ screen (kinase selectivity in THP-1 cell lysates)) EUB0000639a CAMK1D. To be noted: lysate, at 1 µM. The class given is subcellular.
Assay [13] concerns the target Serine/threonine-protein kinase 24 (Homo sapiens) (UniProt Q9Y6E0). Put plainly: Selectivity interaction (ActivX KiNativ screen (kinase selectivity in THP-1 cell lysates)) EUB0000639a STK24. To be noted: lysate, at 1 µM. The class given is subcellular.
The target of assay [14] is STE20-like serine/threonine-protein kinase (Homo sapiens, UniProt Q9H2G2). Put plainly: Selectivity interaction (ActivX KiNativ screen (kinase selectivity in THP-1 cell lysates)) EUB0000639a SLK. The class given is subcellular. To be noted: lysate, at 1 µM.
For assay [15], the target named is Wee1-like protein kinase (Homo sapiens) (UniProt P30291). Put plainly: Selectivity interaction (ActivX KiNativ screen (kinase selectivity in THP-1 cell lysates)) EUB0000639a WEE1. In kind it is subcellular. To be noted: lysate.

Experimental findings from ChEMBL document CHEMBL5465560, “Selectivity Literature for EUbOPEN Chemogenomic Library” (2024) are described below.

Wee1-like protein kinase (Homo sapiens), sequence (P30291 whole entry, looked up): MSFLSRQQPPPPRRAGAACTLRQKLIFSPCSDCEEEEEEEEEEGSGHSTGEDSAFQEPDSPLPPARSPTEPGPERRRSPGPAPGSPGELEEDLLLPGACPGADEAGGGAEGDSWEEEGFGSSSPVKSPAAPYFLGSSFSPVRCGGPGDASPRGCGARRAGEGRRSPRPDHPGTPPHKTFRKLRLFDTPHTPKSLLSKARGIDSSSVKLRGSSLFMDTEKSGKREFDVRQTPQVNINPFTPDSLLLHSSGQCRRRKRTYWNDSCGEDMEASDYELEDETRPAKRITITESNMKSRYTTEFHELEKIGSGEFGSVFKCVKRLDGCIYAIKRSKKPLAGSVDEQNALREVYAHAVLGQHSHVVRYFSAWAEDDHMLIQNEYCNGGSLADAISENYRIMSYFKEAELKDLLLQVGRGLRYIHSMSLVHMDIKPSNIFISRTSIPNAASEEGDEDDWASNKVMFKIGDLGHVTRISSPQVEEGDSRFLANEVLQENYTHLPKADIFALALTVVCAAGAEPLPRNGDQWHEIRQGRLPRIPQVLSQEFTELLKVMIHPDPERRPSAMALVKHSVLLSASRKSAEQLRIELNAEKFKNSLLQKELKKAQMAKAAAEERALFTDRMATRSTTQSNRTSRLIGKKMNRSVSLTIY
Fibroblast growth factor receptor 2 (Homo sapiens), sequence (P21802 22-821 limits assumed): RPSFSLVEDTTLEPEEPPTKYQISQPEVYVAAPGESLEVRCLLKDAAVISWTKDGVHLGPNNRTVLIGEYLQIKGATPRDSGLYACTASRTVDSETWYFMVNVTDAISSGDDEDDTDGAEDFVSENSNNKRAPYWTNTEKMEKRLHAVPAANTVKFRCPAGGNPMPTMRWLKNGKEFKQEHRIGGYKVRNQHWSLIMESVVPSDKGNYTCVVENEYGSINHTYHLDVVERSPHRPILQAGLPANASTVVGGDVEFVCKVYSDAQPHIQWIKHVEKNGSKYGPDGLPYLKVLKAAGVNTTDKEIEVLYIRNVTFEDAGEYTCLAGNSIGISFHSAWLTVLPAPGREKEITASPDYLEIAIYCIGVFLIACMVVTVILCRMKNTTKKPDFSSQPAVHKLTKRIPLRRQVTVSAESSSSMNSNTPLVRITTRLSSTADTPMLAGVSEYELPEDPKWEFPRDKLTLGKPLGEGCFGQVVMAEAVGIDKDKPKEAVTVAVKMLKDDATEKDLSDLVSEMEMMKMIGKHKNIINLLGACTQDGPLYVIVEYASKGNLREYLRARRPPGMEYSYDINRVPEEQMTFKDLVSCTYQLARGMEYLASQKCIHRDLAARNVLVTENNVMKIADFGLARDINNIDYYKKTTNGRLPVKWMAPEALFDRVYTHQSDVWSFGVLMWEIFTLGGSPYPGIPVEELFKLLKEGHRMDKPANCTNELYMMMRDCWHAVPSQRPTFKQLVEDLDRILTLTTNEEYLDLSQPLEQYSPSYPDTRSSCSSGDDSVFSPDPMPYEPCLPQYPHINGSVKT
Serine/threonine-protein kinase 24 (Homo sapiens), sequence (Q9Y6E0 whole entry, looked up): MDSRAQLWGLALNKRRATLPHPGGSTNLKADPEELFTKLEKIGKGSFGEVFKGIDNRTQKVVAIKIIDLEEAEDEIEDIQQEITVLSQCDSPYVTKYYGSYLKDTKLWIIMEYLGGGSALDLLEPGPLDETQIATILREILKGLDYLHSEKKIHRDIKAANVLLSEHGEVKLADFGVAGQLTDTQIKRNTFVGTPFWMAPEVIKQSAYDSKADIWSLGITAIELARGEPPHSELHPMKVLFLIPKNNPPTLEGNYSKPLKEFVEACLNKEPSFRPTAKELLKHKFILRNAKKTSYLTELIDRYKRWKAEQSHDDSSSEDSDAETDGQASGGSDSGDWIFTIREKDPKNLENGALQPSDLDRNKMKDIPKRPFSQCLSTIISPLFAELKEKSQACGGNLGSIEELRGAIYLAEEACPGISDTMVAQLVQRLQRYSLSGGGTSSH
Calcium/calmodulin-dependent protein kinase type 1D (Homo sapiens), sequence (Q8IU85 whole entry, looked up): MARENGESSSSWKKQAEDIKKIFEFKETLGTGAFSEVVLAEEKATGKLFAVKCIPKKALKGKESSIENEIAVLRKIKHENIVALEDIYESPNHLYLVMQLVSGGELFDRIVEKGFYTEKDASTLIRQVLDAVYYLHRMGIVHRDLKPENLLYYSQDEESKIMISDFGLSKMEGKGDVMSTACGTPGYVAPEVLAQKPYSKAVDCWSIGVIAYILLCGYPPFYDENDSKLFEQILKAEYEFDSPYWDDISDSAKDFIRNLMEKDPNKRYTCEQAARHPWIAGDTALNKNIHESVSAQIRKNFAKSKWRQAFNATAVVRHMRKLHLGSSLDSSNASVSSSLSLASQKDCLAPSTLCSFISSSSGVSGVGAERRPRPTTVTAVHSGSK
STE20-like serine/threonine-protein kinase, sequence (Q9H2G2 whole entry, looked up): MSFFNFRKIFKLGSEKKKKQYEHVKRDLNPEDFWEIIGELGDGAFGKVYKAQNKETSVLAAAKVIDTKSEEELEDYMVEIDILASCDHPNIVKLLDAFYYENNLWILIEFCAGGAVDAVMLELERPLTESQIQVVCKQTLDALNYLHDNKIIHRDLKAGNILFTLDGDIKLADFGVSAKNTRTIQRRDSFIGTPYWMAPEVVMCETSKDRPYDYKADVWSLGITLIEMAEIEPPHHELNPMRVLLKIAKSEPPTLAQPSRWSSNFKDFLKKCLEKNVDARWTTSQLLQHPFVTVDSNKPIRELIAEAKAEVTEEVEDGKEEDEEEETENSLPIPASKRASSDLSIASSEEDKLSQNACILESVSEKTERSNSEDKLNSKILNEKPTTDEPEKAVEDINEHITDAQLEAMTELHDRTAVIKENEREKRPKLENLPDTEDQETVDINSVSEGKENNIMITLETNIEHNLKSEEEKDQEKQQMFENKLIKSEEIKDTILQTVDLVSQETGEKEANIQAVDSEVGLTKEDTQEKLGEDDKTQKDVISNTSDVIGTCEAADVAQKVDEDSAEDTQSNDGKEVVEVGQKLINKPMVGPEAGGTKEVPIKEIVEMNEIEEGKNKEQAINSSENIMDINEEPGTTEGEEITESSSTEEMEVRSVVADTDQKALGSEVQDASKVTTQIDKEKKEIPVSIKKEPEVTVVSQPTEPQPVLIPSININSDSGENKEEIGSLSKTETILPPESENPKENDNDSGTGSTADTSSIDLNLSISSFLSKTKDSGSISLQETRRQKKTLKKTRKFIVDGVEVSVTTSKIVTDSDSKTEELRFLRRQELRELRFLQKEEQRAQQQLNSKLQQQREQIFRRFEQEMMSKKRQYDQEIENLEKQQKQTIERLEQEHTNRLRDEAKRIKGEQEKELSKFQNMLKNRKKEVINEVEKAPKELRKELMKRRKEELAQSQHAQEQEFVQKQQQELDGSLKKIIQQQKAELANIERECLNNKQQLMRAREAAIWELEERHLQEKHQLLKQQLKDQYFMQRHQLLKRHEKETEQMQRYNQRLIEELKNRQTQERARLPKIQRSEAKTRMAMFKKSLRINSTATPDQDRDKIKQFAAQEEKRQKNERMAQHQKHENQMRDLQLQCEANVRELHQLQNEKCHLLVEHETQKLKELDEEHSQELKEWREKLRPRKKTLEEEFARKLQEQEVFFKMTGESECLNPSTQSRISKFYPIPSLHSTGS
Tyrosine-protein kinase Yes (Homo sapiens), sequence (P07947 2-543 limits assumed): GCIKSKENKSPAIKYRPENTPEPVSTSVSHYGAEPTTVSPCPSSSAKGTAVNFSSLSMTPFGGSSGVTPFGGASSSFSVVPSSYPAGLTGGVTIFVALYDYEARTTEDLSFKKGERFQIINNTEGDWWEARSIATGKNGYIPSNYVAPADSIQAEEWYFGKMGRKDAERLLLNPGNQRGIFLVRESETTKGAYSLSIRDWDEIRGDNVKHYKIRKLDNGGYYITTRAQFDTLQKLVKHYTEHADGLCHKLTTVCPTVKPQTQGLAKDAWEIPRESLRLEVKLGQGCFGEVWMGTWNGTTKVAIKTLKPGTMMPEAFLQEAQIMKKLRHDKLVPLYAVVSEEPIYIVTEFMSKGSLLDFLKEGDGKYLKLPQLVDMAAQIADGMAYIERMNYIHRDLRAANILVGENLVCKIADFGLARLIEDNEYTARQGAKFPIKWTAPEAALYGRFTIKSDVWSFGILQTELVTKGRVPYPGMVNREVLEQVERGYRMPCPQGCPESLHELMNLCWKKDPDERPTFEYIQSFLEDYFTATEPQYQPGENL
Activin receptor type-2A (Homo sapiens), sequence (P27037 whole entry): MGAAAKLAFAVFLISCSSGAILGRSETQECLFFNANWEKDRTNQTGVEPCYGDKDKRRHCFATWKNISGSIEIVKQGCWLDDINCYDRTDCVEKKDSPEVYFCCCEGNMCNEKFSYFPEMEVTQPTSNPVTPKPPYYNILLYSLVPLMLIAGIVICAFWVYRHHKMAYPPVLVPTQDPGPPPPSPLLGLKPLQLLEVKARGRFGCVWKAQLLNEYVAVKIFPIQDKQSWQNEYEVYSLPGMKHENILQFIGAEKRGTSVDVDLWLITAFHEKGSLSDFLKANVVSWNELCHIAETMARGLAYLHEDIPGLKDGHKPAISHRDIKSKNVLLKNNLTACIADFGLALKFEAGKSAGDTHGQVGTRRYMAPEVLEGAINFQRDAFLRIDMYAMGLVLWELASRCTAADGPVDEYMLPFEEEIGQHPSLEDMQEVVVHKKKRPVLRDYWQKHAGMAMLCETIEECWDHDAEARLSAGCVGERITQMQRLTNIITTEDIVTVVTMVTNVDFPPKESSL

On to `Cc1cc([C@@H](C)Nc2ccccc2C(=O)O)c2nc(N3CCOCC3)cc(=O)n2c1` [AZD-6482], for which, in assay [1], the % of control came out at 100%.

For `Nc1cnc(N2CCc3cc(S(=O)(=O)Nc4c(F)cc(Cl)cc4F)cc(N4CCCC4=O)c32)nc1` [TP-020n], the % of control in [2] stood at 100%.

As to `CCC(=O)N1CCN(c2ccc(-n3c(=O)ccc4cnc5ccc(-c6cnc7ccccc7c6)cc5c43)cc2C(F)(F)F)CC1`, the % of control in assay [3] was determined as 80%; in [4], 1.2%.

For `COc1cc(Nc2nc(C)cc(-c3cnn4nc(OC)ccc34)n2)cc(C(F)(F)F)c1`, the % of control in assay [5] is 67%; in assay [6] it was 91%; in [7], 98%.

In [8], `C=CC(=O)Nc1cc(-n2c(=O)ccc3cnc4ccc(-c5ccc(NS(C)(=O)=O)cc5)cc4c32)ccc1C` gave a GIC50 of 4.92 µM.

Consider `CNC(=O)Nc1ccc(-c2nc(N3CC4CCC(C3)O4)c3cnn(C4CCC5(CC4)OCCO5)c3n2)cc1`, for which the % of control in assay [9] was 92%; in assay [10], 97%. Moreover, the % of inhibition in [11] came to 6%.

Regarding `CC[C@@H]1[C@H](F)C(=O)N[C@@H]1COc1nccc2cc(C(N)=O)c(OC)cc12` [ZIMLOVISERTIB], the % of inhibition is -1.2% in assay [12]; 5.9% in assay [13]; -14.8% in assay [14]; 25.6% in assay [15] (at 0.01 µM); -1.5% in [15] (at 0.04 µM); 3.2% in assay [15] (at 0.2 µM). Further, the results for the % of inhibition in assay [15] (at 1 µM) and in [15] (at 5 µM) were -5.7% and 35.6%, respectively.
